In patent US20110081315A1, “NOVEL MACROCYCLIC INHIBITORS OF HEPATITIS C VIRUS REPLICATION” (INTERMUNE, INC., priority 2009, published 2011):
Read-outs that look alike come from different tables or passages of the source.

Columns and labels:
hepatitis C replicon = hepatitis C replicon EC50 assay; type: cell-based; settings: Hepatitis C virus
Text: (§1) NS3-NS4 inhibition activity can be determined using known assay methods. For example, NS3/NS4 complexes may be formed and inhibitory concentrations of test compounds determined as described in U.S. Patent Application Publication Number 2007/0054842 paragraph numbers 1497-1509, which is incorporated herein by reference in its entirety. Similarly, hepatitis C replicon EC50 may be determined using known assay methods such as described in U.S. Patent Application Publication Number 2007/0054842 paragraph numbers 1510-1515, which is incorporated herein by reference in its entirety. Assays may be conducted at ambient temperature (23° C.) in assay buffer containing 50 mM Tris-HCl, pH 7.5, 15% glycerol, 0.6 mM Lauryldimethylamine Oxide (LDAO), 25 μM NS4A peptide, and 10 mM Dithiothreitol (DTT).

NS3/NS4 complexes = NS3/NS4 complexes (Hepatitis C virus genotype 1a, UniProt P27958); assay: NS3/NS4 inhibition assay (IC50); type: biochemical; settings: NS3/NS4 activity; 23° C., 25 μM NS4A peptide
NS3/NS4 complexes, sequence (P27958 1027-1657, one chain of several): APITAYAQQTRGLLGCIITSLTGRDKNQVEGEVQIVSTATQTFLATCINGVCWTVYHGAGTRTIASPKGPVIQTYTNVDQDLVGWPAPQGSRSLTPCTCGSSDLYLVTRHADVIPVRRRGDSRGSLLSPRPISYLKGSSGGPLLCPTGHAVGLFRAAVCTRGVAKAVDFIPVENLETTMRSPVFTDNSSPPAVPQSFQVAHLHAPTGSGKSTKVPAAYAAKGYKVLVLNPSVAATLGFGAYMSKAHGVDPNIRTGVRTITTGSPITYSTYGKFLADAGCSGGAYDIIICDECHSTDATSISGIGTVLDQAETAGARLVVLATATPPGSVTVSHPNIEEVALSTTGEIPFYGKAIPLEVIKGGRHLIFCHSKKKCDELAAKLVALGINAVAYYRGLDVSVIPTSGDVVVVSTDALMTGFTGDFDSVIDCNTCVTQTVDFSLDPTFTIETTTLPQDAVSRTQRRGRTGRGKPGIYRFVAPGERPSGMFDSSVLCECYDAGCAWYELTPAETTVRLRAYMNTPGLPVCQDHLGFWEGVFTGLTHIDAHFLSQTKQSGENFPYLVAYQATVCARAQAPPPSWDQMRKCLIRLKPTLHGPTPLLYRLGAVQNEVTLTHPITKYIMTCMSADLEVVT
Text: as §1

[1] = hepatitis C replicon, read-out: EC50

SMILES | EC50 (hepatitis C replicon; [1]) [nM] | IC50 (NS3/NS4 complexes) [nM] | EC50 (hepatitis C replicon) [nM]
COc1ccc2c(O[C@@H]3C[C@H]4C(=O)N[C@]5(C(=O)NS(=O)(=O)C6(C)CC6)C[C@H]5/C=C\CCCCC[C@H](Nc5ccc(F)c(OC(F)(F)F)c5)C(=O)N4C3)cc(-c3nc(C(C)C)cs3)nc2c1C (single isomer, unassigned) [Compound 601] | < 10 | < 10 | 
COc1ccc2c(O[C@@H]3C[C@H]4C(=O)N[C@]5(C(=O)NS(=O)(=O)C6(C)CC6)C[C@H]5/C=C\CCCCC[C@H](Nc5ccc(OC(F)(F)F)c(F)c5)C(=O)N4C3)cc(-c3nc(C(C)C)cs3)nc2c1C (single isomer, unassigned) [Compound 602] | 10 to 100 | < 10 | 
COc1ccc2c(O[C@@H]3C[C@H]4C(=O)N[C@]5(C(=O)NS(=O)(=O)C6(C)CC6)C[C@H]5/C=C\CCCCC[C@H](Nc5ccc(N)cc5)C(=O)N4C3)cc(-c3nc(C(C)C)cs3)nc2c1C [Compound 101] |  | < 10 | 10 to 100
COc1ccc2c(O[C@@H]3C[C@H]4C(=O)N[C@]5(C(=O)NS(=O)(=O)C6(C)CC6)C[C@H]5/C=C\CCCCC[C@H](Nc5cccc(N)c5)C(=O)N4C3)cc(-c3nc(C(C)C)cs3)nc2c1C [Compound 102] |  | < 10 | < 10
COc1ccc2c(O[C@@H]3C[C@H]4C(=O)N[C@]5(C(=O)NS(=O)(=O)C6(C)CC6)C[C@H]5/C=C\CCCCC[C@H](Nc5cccc(C(=O)O)c5)C(=O)N4C3)cc(-c3nc(C(C)C)cs3)nc2c1C [Compound 103] | < 10 | < 10 | 
COc1ccc2c(O[C@@H]3C[C@H]4C(=O)N[C@]5(C(=O)NS(=O)(=O)C6(C)CC6)C[C@H]5/C=C\CCCCC[C@H](Nc5cccc(C(=O)N6CCN(C)CC6)c5)C(=O)N4C3)cc(-c3nc(C(C)C)cs3)nc2c1C [Compound 104] | < 10 | < 10 | 
COc1ccc2c(O[C@@H]3C[C@H]4C(=O)N[C@]5(C(=O)NS(=O)(=O)C6(C)CC6)C[C@H]5/C=C\CCCCC[C@H](Nc5cccc(C(=O)N6CCOCC6)c5)C(=O)N4C3)cc(-c3nc(C(C)C)cs3)nc2c1C [Compound 105] | < 10 | < 10 | 
COc1ccc2c(O[C@@H]3C[C@H]4C(=O)N[C@]5(C(=O)NS(=O)(=O)C6(C)CC6)C[C@H]5/C=C\CCCCC[C@H](Nc5cccc(C(=O)N6CC(C)OC(C)C6)c5)C(=O)N4C3)cc(-c3nc(C(C)C)cs3)nc2c1C (some centres unmarked) [Compound 106] | < 10 | < 10 | 
COc1ccc2c(O[C@@H]3C[C@H]4C(=O)N[C@]5(C(=O)NS(=O)(=O)C6(C)CC6)C[C@H]5/C=C\CCCCC[C@H](Nc5cccc(C(=O)N6CCNCC6)c5)C(=O)N4C3)cc(-c3nc(C(C)C)cs3)nc2c1C [Compound 107] | < 10 | < 10 | 
CCOC(=O)N1CCN(C(=O)c2cccc(N[C@H]3CCCCC/C=C\[C@@H]4C[C@@]4(C(=O)NS(=O)(=O)C4(C)CC4)NC(=O)[C@@H]4C[C@@H](Oc5cc(-c6nc(C(C)C)cs6)nc6c(C)c(OC)ccc56)CN4C3=O)c2)CC1 [Compound 108] | < 10 | < 10 | 
COc1ccc2c(O[C@@H]3C[C@H]4C(=O)N[C@]5(C(=O)NS(=O)(=O)C6(C)CC6)C[C@H]5/C=C\CCCCC[C@H](Nc5cccc(C(=O)N6CCOC(C)C6)c5)C(=O)N4C3)cc(-c3nc(C(C)C)cs3)nc2c1C (some centres unmarked) [Compound 109] | < 10 | < 10 | 
COc1ccc2c(O[C@@H]3C[C@H]4C(=O)N[C@]5(C(=O)NS(=O)(=O)C6(C)CC6)C[C@H]5/C=C\CCCCC[C@H](Nc5cccc(C(=O)N6CCN(CCN(C)C)CC6)c5)C(=O)N4C3)cc(-c3nc(C(C)C)cs3)nc2c1C [Compound 111] | < 10 | < 10 | 
CCN1CCN(C(=O)c2cccc(N[C@H]3CCCCC/C=C\[C@@H]4C[C@@]4(C(=O)NS(=O)(=O)C4(C)CC4)NC(=O)[C@@H]4C[C@@H](Oc5cc(-c6nc(C(C)C)cs6)nc6c(C)c(OC)ccc56)CN4C3=O)c2)CC1 [Compound 112] | < 10 | < 10 | 
CCCN1CCN(C(=O)c2cccc(N[C@H]3CCCCC/C=C\[C@@H]4C[C@@]4(C(=O)NS(=O)(=O)C4(C)CC4)NC(=O)[C@@H]4C[C@@H](Oc5cc(-c6nc(C(C)C)cs6)nc6c(C)c(OC)ccc56)CN4C3=O)c2)CC1 [Compound 113] | < 10 | < 10 | 
COc1ccc2c(O[C@@H]3C[C@H]4C(=O)N[C@]5(C(=O)NS(=O)(=O)C6(C)CC6)C[C@H]5/C=C\CCCCC[C@H](Nc5cccc(C(=O)N6CCN(C(c7ccccc7)c7ccccc7)CC6)c5)C(=O)N4C3)cc(-c3nc(C(C)C)cs3)nc2c1C [Compound 114] | < 10 | < 10 | 
COc1ccc2c(O[C@@H]3C[C@H]4C(=O)N[C@]5(C(=O)NS(=O)(=O)C6(C)CC6)C[C@H]5/C=C\CCCCC[C@H](Nc5cccc(C(=O)N6CCN(C(=O)c7ccccc7)CC6)c5)C(=O)N4C3)cc(-c3nc(C(C)C)cs3)nc2c1C [Compound 115] | < 10 | < 10 | 

SMILES | EC50 (hepatitis C replicon; [1]) [nM] | IC50 (NS3/NS4 complexes) [nM] | EC50 (hepatitis C replicon) [nM]
COc1ccc2c(O[C@@H]3C[C@H]4C(=O)N[C@]5(C(=O)NS(=O)(=O)C6(C)CC6)C[C@H]5/C=C\CCCCC[C@H](Nc5cccc(C(=O)N6CCN(C(C)c7ccccc7)CC6)c5)C(=O)N4C3)cc(-c3nc(C(C)C)cs3)nc2c1C (some centres unmarked) [Compound 116] | 10 to 100 | < 10 | 
COc1ccc2c(O[C@@H]3C[C@H]4C(=O)N[C@]5(C(=O)NS(=O)(=O)C6(C)CC6)C[C@H]5/C=C\CCCCC[C@H](Nc5cccc(C(=O)N6CCN(CCO)CC6)c5)C(=O)N4C3)cc(-c3nc(C(C)C)cs3)nc2c1C [Compound 117] | < 10 | < 10 | 
COc1ccc2c(O[C@@H]3C[C@H]4C(=O)N[C@]5(C(=O)NS(=O)(=O)C6(C)CC6)C[C@H]5/C=C\CCCCC[C@H](Nc5cccc(C(=O)N6CCN(c7ccccc7C)CC6)c5)C(=O)N4C3)cc(-c3nc(C(C)C)cs3)nc2c1C [Compound 118] | 10 to 100 | < 10 | 
COc1ccc2c(O[C@@H]3C[C@H]4C(=O)N[C@]5(C(=O)NS(=O)(=O)C6(C)CC6)C[C@H]5/C=C\CCCCC[C@H](Nc5cccc(C(=O)N6CCN(C(=O)C7CC7)CC6)c5)C(=O)N4C3)cc(-c3nc(C(C)C)cs3)nc2c1C [Compound 119] | < 10 | < 10 | 
COc1ccc2c(O[C@@H]3C[C@H]4C(=O)N[C@]5(C(=O)NS(=O)(=O)C6(C)CC6)C[C@H]5/C=C\CCCCC[C@H](Nc5cccc(C(=O)N6C[C@@H](C)O[C@@H](C)C6)c5)C(=O)N4C3)cc(-c3nc(C(C)C)cs3)nc2c1C [Compound 120] | < 10 | < 10 | 
COc1ccc2c(O[C@@H]3C[C@H]4C(=O)N[C@]5(C(=O)NS(=O)(=O)C6(C)CC6)C[C@H]5/C=C\CCCCC[C@H](Nc5cccc(C(=O)N6CCN(C(=O)c7ccco7)CC6)c5)C(=O)N4C3)cc(-c3nc(C(C)C)cs3)nc2c1C [Compound 121] | 10 to 100 | < 10 | 
COc1ccc2c(O[C@@H]3C[C@H]4C(=O)N[C@]5(C(=O)NS(=O)(=O)C6(C)CC6)C[C@H]5/C=C\CCCCC[C@H](Nc5cccc(C(=O)N6CCOCC6Cc6ccccc6)c5)C(=O)N4C3)cc(-c3nc(C(C)C)cs3)nc2c1C (some centres unmarked) [Compound 122] | 10 to 100 | < 10 | 
COc1ccc2c(O[C@@H]3C[C@H]4C(=O)N[C@]5(C(=O)NS(=O)(=O)C6(C)CC6)C[C@H]5/C=C\CCCCC[C@H](Nc5cccc(C(=O)N6CCN(c7ccc(C)cc7)CC6)c5)C(=O)N4C3)cc(-c3nc(C(C)C)cs3)nc2c1C [Compound 123] | 10 to 100 | < 10 | 
COc1ccc2c(O[C@@H]3C[C@H]4C(=O)N[C@]5(C(=O)NS(=O)(=O)C6(C)CC6)C[C@H]5/C=C\CCCCC[C@H](Nc5cccc(C(=O)N6CCN(c7cccc(C(F)(F)F)c7)CC6)c5)C(=O)N4C3)cc(-c3nc(C(C)C)cs3)nc2c1C [Compound 124] | 10 to 100 | < 10 | 
COc1ccc2c(O[C@@H]3C[C@H]4C(=O)N[C@]5(C(=O)NS(=O)(=O)C6(C)CC6)C[C@H]5/C=C\CCCCC[C@H](Nc5cccc(C(=O)N6CCN(c7ncccn7)CC6)c5)C(=O)N4C3)cc(-c3nc(C(C)C)cs3)nc2c1C [Compound 125] | < 10 | < 10 | 
COc1ccc2c(O[C@@H]3C[C@H]4C(=O)N[C@]5(C(=O)NS(=O)(=O)C6(C)CC6)C[C@H]5/C=C\CCCCC[C@H](Nc5cccc(C(=O)N6CCN(c7ccccn7)CC6)c5)C(=O)N4C3)cc(-c3nc(C(C)C)cs3)nc2c1C [Compound 126] | < 10 | < 10 | 
COc1ccc2c(O[C@@H]3C[C@H]4C(=O)N[C@]5(C(=O)NS(=O)(=O)C6(C)CC6)C[C@H]5/C=C\CCCCC[C@H](Nc5cccc(NC(=O)N6CCOCC6)c5)C(=O)N4C3)cc(-c3nc(C(C)C)cs3)nc2c1C [Compound 127] | < 10 | < 10 | 
COc1ccc2c(O[C@@H]3C[C@H]4C(=O)N[C@]5(C(=O)NS(=O)(=O)C6(C)CC6)C[C@H]5/C=C\CCCCC[C@H](Nc5cccc(-c6ncco6)c5)C(=O)N4C3)cc(-c3nc(C(C)C)cs3)nc2c1C [Compound 128] | < 10 | < 10 | 
COc1ccc2c(O[C@@H]3C[C@H]4C(=O)N[C@]5(C(=O)NS(=O)(=O)C6(C)CC6)C[C@H]5/C=C\CCCCC[C@H](Nc5cccc(C(C)(C)C)c5)C(=O)N4C3)cc(-c3nc(C(C)C)cs3)nc2c1C [Compound 129] | 10 to 100 | < 10 | 
CC(C)c1csc(-c2cccc3c2nc(O[C@@H]2C[C@H]4C(=O)N[C@]5(C(=O)NS(=O)(=O)C6(C)CC6)C[C@H]5/C=C\CCCCC[C@H](NC(=O)OC5C[C@@H]6C[C@@H]6C5)C(=O)N4C2)n3C(C)C)n1 (some centres unmarked) [Compound 1411] | 10 to 100 |  | 
CC(C)n1c(O[C@@H]2C[C@H]3C(=O)N[C@]4(C(=O)NS(=O)(=O)N(C)C)C[C@H]4/C=C\CCCCC[C@H](NC(=O)OC(C)(C)C)C(=O)N3C2)nc2c(-c3cccnc3)cccc21 [Compound 1738] | < 10 |  | 
